# Experimental data reported in patent US20230247992A1, “ARTHROPOD CONTROL COMPOSITION” (Firmenich SA, priority 2020, published 2023).
# Columns and labels:
# Aedes aegypti [1] = assay: in vivo Arm-in-cage assay on human volunteers; conditions: 20% applied on arm skin (600 cm^2), three volunteers
# Experimental: The controlling effect, repellence & spatial repellence, according to the present invention is also determined according to an arm in the box method adapted from the WHO Guidelines for efficacy testing of mosquito repellents for human skin (WHO/CDS/NTD/WHOPES/2009.4). […] Further information is provided in the accompanying examples.
# The Arm in the box method was adapted from the WHO Guidelines for efficacy testing of mosquito repellents for human skin (WHO/CDS/NTD/WHOPES/2009.4). The readiness of 100 hungry female mosquitoes A. aegypti to probe is assessed by inserting an untreated arm into the cage (40×40×40 cm) for 30 seconds (negative control) three times (once at the beginning, once at the fourth hour and once at the eighth hour), to determine probing activity. Then, the product is applied onto the skin of the forearm of a human volunteer (1 mL per 600 cm^2) and after 5 minutes, this arm is inserted into the cage and exposed for 3 minutes. The assay take place in temperature (27±2° C.) and humidity (80±10%RH) regulated room on three different volunteers.
# Arm-in-cage test is a compulsory assay for most biocide registrations to assess the efficacy of a substance. It is a very challenging test as the treated arm of a volunteer is being placed in a space containing a density of […] blood hungry mosquitoes / m^3 of air.
# Aedes aegypti [2] = assay: in vitro Warm Body assay, substance introduced in the cage air by forced evaporation (spatial repellence); format: in vivo; conditions: without substance 54.7±3.2
# Ixodes ricinus = assay: whole plant or invertebrate; format: in vivo; conditions: Ixodes ricinus, read-out: mean percentage of ticks affected
# Aedes aegypti [3] = assay: in vitro Warm Body assay, substance applied on glass Petri dish on top of the warm body (deterrence and repellence); format: in vivo; conditions: ethanol control 59.3±6.9 landings
smiles,measurement,setting,value
COc1cc(C=O)ccc1O [4-hydroxy-3-methoxybenzaldehyde],decrease of the percentage of mosquito landing on the arm,Aedes aegypti [1]; 5 min post-application,82±5.2%
same,decrease of the percentage of mosquito landing on the arm,Aedes aegypti [1]; 1 h post-application,78±2.6%
same,decrease of the percentage of mosquito landing on the arm,Aedes aegypti [1]; 2 h post-application,66±8.0%
same,decrease of the percentage of mosquito landing on the arm,Aedes aegypti [1]; 3 h post-application,61±6%
same,decrease of the percentage of mosquito landing on the arm,Aedes aegypti [1]; 4 h post-application,63±2%
same,"number of mosquitoes landing within 2 minutes on the warm body, air in the cage saturated with stimulus",Aedes aegypti [2]; 0.0017 µg/L air,17.0
same,"number of mosquitoes landing within 2 minutes on the warm body, air in the cage saturated with stimulus",Aedes aegypti [2]; 0.017 µg/L air,9.0
same,"number of mosquitoes landing within 2 minutes on the warm body, air in the cage saturated with stimulus",Aedes aegypti [2]; 0.17 µg/L air,1.5
same,"number of mosquitoes landing within 2 minutes on the warm body, air in the cage saturated with stimulus",Aedes aegypti [2]; 1.7 µg/L air,3.5
same,"number of mosquitoes landing within 2 minutes on the warm body, air in the cage saturated with stimulus",Aedes aegypti [2]; 17 µg/L air,1.0
same,"pest or weed control at 1 µg/cm2, 1 µg/cm2",Ixodes ricinus,14%
same,"pest or weed control at 5 µg/cm2, 5 µg/cm2",Ixodes ricinus,44%
same,"pest or weed control at 25 µg/cm2, 25 µg/cm2",Ixodes ricinus,73%
same,number of mosquitoes landing within 2 minutes on the warm body,Aedes aegypti [3]; 0.04% in ethanol,9.0
same,number of mosquitoes landing within 2 minutes on the warm body,Aedes aegypti [3]; 1% in ethanol,3.0
same,number of mosquitoes landing within 2 minutes on the warm body,Aedes aegypti [3]; […] in ethanol,19.0
